Source: ChEMBL document CHEMBL1122746, “Tumor inhibitory triazenes. 3. Dealkylation within an homologous series and its relation to antitumor activity” (J Med Chem, 1984)

Tests used:
[1] = Partition coefficient (logP); assay type: physicochemical; conditions: octanol/water
Mus musculus [2] = assay: Antitumor activity is evaluated as the percent increase in lifespan of TLX/5 tumor bearing animals at 200 mg/kg, daily x 5; assay type: functional
Mus musculus [3] = assay: Antitumor activity is evaluated as the percent increase in lifespan of TLX/5 tumor bearing animals at 25 mg/kg, daily x 5; assay type: functional
Mus musculus [4] = assay: Antitumor activity is evaluated as the percent increase in lifespan of TLX/5 tumor bearing animals at 100 mg/kg, daily x 5; assay type: functional
Mus musculus [5] = assay: Antitumor activity is evaluated as the percent increase in lifespan of TLX/5 tumor bearing animals at 12.5 mg/kg, daily x 5; assay type: functional
Mus musculus [6] = assay: Antitumor activity is evaluated as the percent increase in lifespan of TLX/5 tumor bearing animals at 50 mg/kg, daily x 5; assay type: functional
Mus musculus [7] = organism: Mus musculus; assay: (§1) Compound is evaluated in vitro for percent dealkylation by mouse liver microsomes; assay type: functional; parameters: concentration or dose not given beside the values
Mus musculus [8] = organism: Mus musculus; assay: (§2) Compound is evaluated in vitro for percent metabolism by mouse liver microsomes; assay type: functional; parameters: concentration or dose not given beside the values
Mus musculus [9] = organism: Mus musculus; assay: Compound is evaluated in vitro for percent demethylation by mouse liver microsomes; assay type: functional
Mus musculus [10] = assay: Antitumor activity is evaluated as the percent increase in lifespan of TLX/5 tumor bearing animals at 400 mg/kg, daily x 5; assay type: functional
Mus musculus [11] = organism: Mus musculus; assay: Compound is evaluated for maximum percentage of increase in life span (ILS) in tumor bearing mice
Mus musculus [12] = organism: Mus musculus; assay: as §2; assay type: functional
Mus musculus [13] = organism: Mus musculus; assay: as §1; assay type: functional

logP ([1]; read-out: logP) | logP [1] | Structure (SMILES) | Increase (Mus musculus [2]) [%] | Increase (Mus musculus [3]) [%] | Increase (Mus musculus [4]) [%] | Increase (Mus musculus [5]) [%] | Increase (Mus musculus [6]) [%] | Activity (Mus musculus [7]) [%] | Activity (Mus musculus [8]) [%] | Activity (Mus musculus [9]) [%] | Increase (Mus musculus [10]) [%] | max % ILS per µmol/kg (Mus musculus [11]) [%·kg/µmol] | Activity (Mus musculus [12]) [%] | Activity (Mus musculus [13]) [%]
2.58 |  | CCCCCCCN(C)/N=N/c1ccc(C(=O)O)cc1 |  |  |  |  |  |  |  |  |  |  |  | 
 |  | CN(/N=N/c1ccc(C(N)=O)cc1)C(C)(C)C | 0 | -4 | 0 | 4 | -2 |  |  |  |  |  |  | 
1.49 |  | CCCCCN(C)/N=N/c1ccc(C(=O)O)cc1 |  |  |  |  |  |  |  |  |  |  |  | 
0 |  | C#CCN(C)/N=N/c1ccc(C(=O)O)cc1 |  |  |  |  |  |  |  |  |  |  |  | 
 |  | CCCCCN(C)/N=N/c1ccc(C(N)=O)cc1 | -28 | 7 | 71 | 3 | 79 | 23.5 | 41.5 | 18 | -51 | 0.392 |  | 
 | -0.44 | CN(C)/N=N/c1ccc(C(=O)O)cc1 |  |  |  |  |  |  |  |  |  |  |  | 
0.04 |  | CCN(C)/N=N/c1ccc(C(=O)O)cc1 |  |  |  |  |  |  |  |  |  |  |  | 
0.34 |  | CC(C)N(C)/N=N/c1ccc(C(=O)O)cc1 |  |  |  |  |  |  |  |  |  |  |  | 
0.97 |  | CCCCN(C)/N=N/c1ccc(C(=O)O)cc1 |  |  |  |  |  |  |  |  |  |  |  | 
 |  | CCN(CC)/N=N/c1ccc(C(N)=O)cc1 |  |  |  |  |  | 53.3 | 53.3 | 0 |  |  |  | 
 |  | CCCN(C)/N=N/c1ccc(C(N)=O)cc1 | 20 | 113 | 41 | 7 | 60 | 33 | 58.3 | 25.3 | -45 | 0.996 |  | 
2.77 |  | CCCCCCCCN(C)/N=N/c1ccc(C(=O)O)cc1 |  |  |  |  |  |  |  |  |  |  |  | 
 |  | CCCCCCCCCCCCN(C)/N=N/c1ccc(C(N)=O)cc1 | 13 | 3 | -1 | 1 | 3 |  |  |  | 9 | 0.023 |  | 
1.33 |  | CCC(C)CN(C)/N=N/c1ccc(C(=O)O)cc1 (stereo not drawn) |  |  |  |  |  |  |  |  |  |  |  | 
 |  | CCCCCCN(C)/N=N/c1ccc(C(N)=O)cc1 | 56 | 9 | 83 | 4 | 11 | 14 | 27 | 13 | 30 | 0.218 |  | 
 |  | CON(C)/N=N/c1ccc(C(N)=O)cc1 | -7 | -3 | -3 | -3 | -5 |  |  |  | -3 |  |  | 
 |  | CN(C)/N=N/c1ccc(C(N)=O)cc1 | -7 | 47 | 51 | 94 | 65 | 1.8 | 57.3 | 55.5 | -26 | 1.45 |  | 
1.95 |  | CCCCCCN(C)/N=N/c1ccc(C(=O)O)cc1 |  |  |  |  |  |  |  |  |  |  |  | 
0.32 |  | C=CCN(C)/N=N/c1ccc(C(=O)O)cc1 |  |  |  |  |  |  |  |  |  |  |  | 
 |  | CCCCCCCN(C)/N=N/c1ccc(C(N)=O)cc1 | 15 | 6 | 65 | 2 | 15 |  |  | 11 | -20 | 0.18 | 23 | 12
0.46 |  | CCCN(C)/N=N/c1ccc(C(=O)O)cc1 |  |  |  |  |  |  |  |  |  |  |  | 
 |  | CN(Cc1ccccc1)/N=N/c1ccc(C(N)=O)cc1 | 86 | -1 | 9 | -3 | 3 |  |  |  | -36 | 0.145 |  | 
 |  | CN(CCO)/N=N/c1ccc(C(N)=O)cc1 | 42 | 0 | 7 | 1 | 5 |  |  |  | 38 | 0.047 |  | 
 |  | CN(O)/N=N/c1ccc(C(N)=O)cc1 | 37 |  | 19 |  | 19 |  |  |  | 55 | 0.036 |  | 

Structure (SMILES) | logP ([1]; read-out: logP) | logP [1] | Increase (Mus musculus [2]) [%] | Increase (Mus musculus [3]) [%] | Increase (Mus musculus [4]) [%] | Increase (Mus musculus [5]) [%] | Increase (Mus musculus [6]) [%] | Activity (Mus musculus [7]) [%] | Activity (Mus musculus [8]) [%] | Activity (Mus musculus [9]) [%] | Increase (Mus musculus [10]) [%] | max % ILS per µmol/kg (Mus musculus [11]) [%·kg/µmol] | Activity (Mus musculus [12]) [%] | Activity (Mus musculus [13]) [%]
CCCCCCCCN(C)/N=N/c1ccc(C(N)=O)cc1 | 4.7 |  | 112 | 4 | 19 | -2 | 4 | 8 | 19.5 | 11.5 | 56 | 0.163 |  | 
CC(C)N(C)/N=N/c1ccc(C(N)=O)cc1 | 2 |  | -10 | 52 | 41 | 21 | 45 |  |  |  | -60 | 0.458 |  | 
CCCCN(C)/N=N/c1ccc(C(N)=O)cc1 | 2.46 |  | -12 | 23 | 83 | 18 | 91 | 33.5 | 55 | 21.5 | -51 | 0.426 |  | 
CCN(C)/N=N/c1ccc(C(N)=O)cc1 | 1.7 |  | -31 | 84 | 76 | 7 | 100 | 33.7 | 61.8 | 28.2 | -49 | 0.693 |  | 
